# From ChEMBL document CHEMBL1201862, “PubChem BioAssay data set” (2004)
#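 Five concentrations, 48 hours, 96-well plates. Abbreviation: GI50, concentration required for 50% inhibition of growth.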 Calls of active or inactive are those of the source. Rule as the data show it: active = GI50 up to about 1.1 µM and inactive = higher.
# Columns and labels:
# Test in all cases: NCI anticancer screen, dose series, 48 h
# BT-549 = test system: BT-549
# UACC-62 = test system: UACC-62
# HCC 2998 = test system: HCC 2998
# OVCAR-3 = test system: OVCAR-3
# NCI-H23 = test system: NCI-H23
# RPMI-8226 = test system: RPMI-8226
# IGROV-1 = test system: IGROV-1
# NCI-H522 = test system: NCI-H522
# 786-0 = test system: 786-0
# OVCAR-8 = test system: OVCAR-8
# NCI/ADR-RES = test system: NCI/ADR-RES
# T47D = test system: T47D
# SF-295 = test system: SF-295
# SF-268 = test system: SF-268
# MDA-MB-435 = test system: MDA-MB-435
# NCI-H226 = test system: NCI-H226
# M14 = test system: M14
# U-251 = test system: U-251
# SK-MEL-5 = test system: SK-MEL-5
# HOP-62 = test system: HOP-62
SMILES,GI50 (BT-549),GI50 (UACC-62),GI50 (HCC 2998),GI50 (OVCAR-3),GI50 (NCI-H23),GI50 (RPMI-8226),GI50 (IGROV-1),GI50 (NCI-H522),GI50 (786-0),GI50 (OVCAR-8),GI50 (NCI/ADR-RES),GI50 (T47D),GI50 (SF-295),GI50 (SF-268),GI50 (MDA-MB-435),GI50 (NCI-H226),GI50 (M14),GI50 (U-251),GI50 (SK-MEL-5),GI50 (HOP-62)
CCCC1(N)CC(OC)OC(C)C1O (stereo unspecified),> 100 µM (inactive),> 100 µM (inactive),> 100 µM (inactive),> 100 µM (inactive),> 100 µM (inactive),> 100 µM (inactive),> 100 µM (inactive),> 100 µM (inactive),> 100 µM (inactive),> 100 µM (inactive),> 100 µM (inactive),> 100 µM (inactive),> 100 µM (inactive),> 100 µM (inactive),> 100 µM (inactive),> 100 µM (inactive),> 100 µM (inactive),> 100 µM (inactive),> 100 µM (inactive),> 100 µM (inactive)
COc1ccc2c(c1)nc1n2C(N)=Nc2ccccc2S1,48.2 µM (inactive),21 µM (inactive),31.8 µM (inactive),5.55 µM (inactive),40.6 µM (inactive),8.73 µM (inactive),3.75 µM (inactive),16.6 µM (inactive),9.68 µM (inactive),18.4 µM (inactive),35.2 µM (inactive),20.8 µM (inactive),44.2 µM (inactive),16.7 µM (inactive),32.4 µM (inactive),11.6 µM (inactive),10.6 µM (inactive),18.8 µM (inactive),7.45 µM (inactive),53.1 µM (inactive)
C/C1=C\CC[C@@]2(C)O[C@@H]2C[C@@H]2[C@H](C/C(C)=C/CC1)OC(=O)[C@]21CO1,> 100 µM (inactive),75.5 µM (inactive),78.9 µM (inactive),> 100 µM (inactive),> 100 µM (inactive),51.5 µM (inactive),42.2 µM (inactive),32.5 µM (inactive),> 100 µM (inactive),> 100 µM (inactive),> 100 µM (inactive),> 100 µM (inactive),> 100 µM (inactive),> 100 µM (inactive),65.8 µM (inactive),> 100 µM (inactive),> 100 µM (inactive),63.8 µM (inactive),> 100 µM (inactive),> 100 µM (inactive)
O=C1Nc2ccccc2/C1=N/Nc1nc(-c2cccc([N+](=O)[O-])c2)cs1,36.3 µM (inactive),26.7 µM (inactive),18.1 µM (inactive),34.8 µM (inactive),36.4 µM (inactive),,21.6 µM (inactive),20.1 µM (inactive),16.3 µM (inactive),15.9 µM (inactive),15.3 µM (inactive),27.3 µM (inactive),20.7 µM (inactive),19.7 µM (inactive),34.4 µM (inactive),19.2 µM (inactive),34.1 µM (inactive),21.4 µM (inactive),20.2 µM (inactive),24.1 µM (inactive)
O=c1c(C(c2ccccn2)c2c(O)oc3cc(O)ccc3c2=O)c(O)oc2cc(O)ccc12,> 100 µM (inactive),> 100 µM (inactive),> 100 µM (inactive),> 100 µM (inactive),> 100 µM (inactive),> 100 µM (inactive),> 100 µM (inactive),> 100 µM (inactive),> 100 µM (inactive),44.2 µM (inactive),> 100 µM (inactive),> 100 µM (inactive),> 100 µM (inactive),> 100 µM (inactive),> 100 µM (inactive),> 100 µM (inactive),> 100 µM (inactive),> 100 µM (inactive),> 100 µM (inactive),> 100 µM (inactive)
CC(CCC(=O)O)[C@H]1CCC2[C@H]3C(CC(=O)[C@@]21C)[C@@]1(C)CCC(O)C[C@H]1C[C@@H]3O (stereo partly specified),> 100 µM (inactive),> 100 µM (inactive),> 100 µM (inactive),,> 100 µM (inactive),> 100 µM (inactive),> 100 µM (inactive),> 100 µM (inactive),> 100 µM (inactive),> 100 µM (inactive),> 100 µM (inactive),> 100 µM (inactive),,> 100 µM (inactive),> 100 µM (inactive),> 100 µM (inactive),> 100 µM (inactive),> 100 µM (inactive),,> 100 µM (inactive)
C=CCC1(O)c2cccc(O)c2C(=O)c2cccc(O)c21 (stereo unspecified),16.8 µM (inactive),,11 µM (inactive),12.3 µM (inactive),8.09 µM (inactive),11.5 µM (inactive),23.6 µM (inactive),9.86 µM (inactive),19.3 µM (inactive),25.8 µM (inactive),11.2 µM (inactive),4.12 µM (inactive),9.35 µM (inactive),23.3 µM (inactive),9.38 µM (inactive),22.3 µM (inactive),16.2 µM (inactive),11.9 µM (inactive),10.7 µM (inactive),21.4 µM (inactive)
COc1ccc(-c2cc(=O)c3c(O)cc(O)cc3o2)cc1OC,17.9 µM (inactive),61.4 µM (inactive),> 100 µM (inactive),46 µM (inactive),> 100 µM (inactive),64.9 µM (inactive),92 µM (inactive),16.7 µM (inactive),68.9 µM (inactive),,56.8 µM (inactive),71.9 µM (inactive),44.8 µM (inactive),28.4 µM (inactive),> 100 µM (inactive),> 100 µM (inactive),> 100 µM (inactive),30 µM (inactive),23 µM (inactive),24 µM (inactive)
O=[N+]([O-])c1ccc(-n2nc3ccc4c(no[n+]4[O-])c3[n+]2[O-])c([N+](=O)[O-])c1,2.67 µM (inactive),2.73 µM (inactive),3.3 µM (inactive),2.47 µM (inactive),2.19 µM (inactive),2.29 µM (inactive),1.71 µM (inactive),1.72 µM (inactive),2.68 µM (inactive),2.4 µM (inactive),3.16 µM (inactive),2.49 µM (inactive),4.53 µM (inactive),5.05 µM (inactive),2.71 µM (inactive),8.24 µM (inactive),1.59 µM (inactive),2.77 µM (inactive),2.79 µM (inactive),3.77 µM (inactive)
C[C@H]1C2Cc3cc(O)ccc3[C@@]1(C)CCN2CCc1ccc(N)cc1,> 100 µM (inactive),> 100 µM (inactive),13.6 µM (inactive),14.2 µM (inactive),> 100 µM (inactive),28.4 µM (inactive),13.6 µM (inactive),19.7 µM (inactive),15.8 µM (inactive),7.98 µM (inactive),25.7 µM (inactive),80.5 µM (inactive),18.6 µM (inactive),19.6 µM (inactive),17.1 µM (inactive),> 100 µM (inactive),18.4 µM (inactive),17.6 µM (inactive),14.4 µM (inactive),8.69 µM (inactive)
O=C(/C=C1/Nc2ccc([N+](=O)[O-])cc2N/C1=C/C(=O)c1ccc(Cl)cc1)c1ccccc1,> 100 µM (inactive),20.5 µM (inactive),> 100 µM (inactive),> 100 µM (inactive),20.3 µM (inactive),,> 100 µM (inactive),12.6 µM (inactive),48.3 µM (inactive),72.4 µM (inactive),60.3 µM (inactive),> 100 µM (inactive),23.4 µM (inactive),30.4 µM (inactive),> 100 µM (inactive),> 100 µM (inactive),> 100 µM (inactive),30.8 µM (inactive),> 100 µM (inactive),20.8 µM (inactive)
CCOP(=O)(CCC(O)CNc1nc(N)nc(Cl)c1/N=N/c1ccc(Cl)cc1)OCC (stereo unspecified),7.38 µM (inactive),13 µM (inactive),13.3 µM (inactive),10.7 µM (inactive),17 µM (inactive),8.47 µM (inactive),15.2 µM (inactive),8.99 µM (inactive),7.93 µM (inactive),17.7 µM (inactive),11.5 µM (inactive),16.9 µM (inactive),14.3 µM (inactive),15.3 µM (inactive),13.2 µM (inactive),16.6 µM (inactive),,11 µM (inactive),12.7 µM (inactive),12.5 µM (inactive)
CCOC(=O)CCc1c(C)c2ccc(O)cc2oc1=O,> 100 µM (inactive),> 100 µM (inactive),> 100 µM (inactive),> 100 µM (inactive),> 100 µM (inactive),> 100 µM (inactive),> 100 µM (inactive),> 100 µM (inactive),> 100 µM (inactive),> 100 µM (inactive),> 100 µM (inactive),> 100 µM (inactive),> 100 µM (inactive),> 100 µM (inactive),> 100 µM (inactive),> 100 µM (inactive),> 100 µM (inactive),> 100 µM (inactive),> 100 µM (inactive),> 100 µM (inactive)
CCCCCCOC(=O)/C=C/[C@]1(CO)C/C(=C/CC(C(C)C)C(C)C)C(=O)O1,10.5 µM (inactive),13.9 µM (inactive),2.2 µM (inactive),11.9 µM (inactive),12.2 µM (inactive),15.7 µM (inactive),15.1 µM (inactive),12.3 µM (inactive),4.36 µM (inactive),16.7 µM (inactive),13.9 µM (inactive),16.8 µM (inactive),10.4 µM (inactive),10.9 µM (inactive),0.738 µM (active),3.41 µM (inactive),12.1 µM (inactive),,2.13 µM (inactive),8.41 µM (inactive)
